# From patent US20230271964A1, “5-AMINO-8-(4-PYRIDYL)-[1,2,4]TRIAZOLO[4,3-C]PYRIMIDIN-3-ONE COMPOUNDS FOR USE AGAINST CANCER” (ASTRAZENECA AB, priority 2020, published 2023)
# Columns and labels:
# [1] = molecular target: human adenosine A1 receptor (Homo sapiens (Human), UniProt P30542); test: Adenosine receptor inhibition binding assay, [3H]DPCPX, A1 receptor membranes; conditions: 1 nM [3H]DPCPX, 25° C., 1 h, Ki from IC50 by Cheng-Prusoff; for Ki: read-out: A1 pKi (converted)
# Experimental: (§1) Inhibition binding assays were performed using 0.2 µg of membranes prepared from HEK293 cells infected with BacMam human adenosine A2A receptor or 1.4 µg of membranes prepared from HEK293 cells infected with BacMam human adenosine A1 receptor. Membranes were incubated in 50 mM Tris-HCl (HEK293-hA2A; pH 7.4) or 50 mM Tris-HCl, 100 mM NaCl, 10 mM MgCl2 (CHO-hA1; pH 7.4) in the presence of varying concentrations of test compound and 1 nM [^3H]ZM241385 (HEK293-hA2A) or [^3H]DPCPX (CHO-hA1) at 25° C. for 1 h. The assay was then terminated by rapid filtration onto GF/B grade Unifilter plates using a TomTec cell harvester, followed by 5 × 0.5 ml washes with ddH2O. Nonspecific binding was defined in the presence of 1 µM CGS 15943 (HEK293-hA2A) or 1 µM DPCPX (CHO-hA1). Bound radioactivity was determined by liquid scintillation counting and inhibition curves were analysed using a four-parameter logistic equation. IC50 values were converted to Ki values with the Cheng-Prusoff equation using a KD value derived from saturation binding studies.
# [2] = molecular target: human adenosine A2A receptor (Homo sapiens (Human), UniProt P29274); test: Adenosine receptor inhibition binding assay, [3H]ZM241385, HEK293 A2A receptor membranes; conditions: 1 nM [3H]ZM241385, HEK293-hA2A membranes, 25° C., 1 h, Ki from IC50 by Cheng-Prusoff; for Ki: read-out: A2A pKi (converted)
# Experimental: as §1
# human adenosine A1 receptor, sequence (P30542 whole entry): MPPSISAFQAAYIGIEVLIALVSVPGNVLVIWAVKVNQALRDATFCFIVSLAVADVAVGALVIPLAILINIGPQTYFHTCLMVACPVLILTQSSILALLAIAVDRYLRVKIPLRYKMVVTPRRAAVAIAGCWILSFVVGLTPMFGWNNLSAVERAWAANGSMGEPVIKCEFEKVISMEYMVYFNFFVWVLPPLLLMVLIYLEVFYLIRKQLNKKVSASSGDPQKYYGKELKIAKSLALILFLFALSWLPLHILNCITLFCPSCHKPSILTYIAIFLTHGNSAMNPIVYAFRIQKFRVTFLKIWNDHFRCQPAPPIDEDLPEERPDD
# human adenosine A2A receptor, sequence (P29274 whole entry): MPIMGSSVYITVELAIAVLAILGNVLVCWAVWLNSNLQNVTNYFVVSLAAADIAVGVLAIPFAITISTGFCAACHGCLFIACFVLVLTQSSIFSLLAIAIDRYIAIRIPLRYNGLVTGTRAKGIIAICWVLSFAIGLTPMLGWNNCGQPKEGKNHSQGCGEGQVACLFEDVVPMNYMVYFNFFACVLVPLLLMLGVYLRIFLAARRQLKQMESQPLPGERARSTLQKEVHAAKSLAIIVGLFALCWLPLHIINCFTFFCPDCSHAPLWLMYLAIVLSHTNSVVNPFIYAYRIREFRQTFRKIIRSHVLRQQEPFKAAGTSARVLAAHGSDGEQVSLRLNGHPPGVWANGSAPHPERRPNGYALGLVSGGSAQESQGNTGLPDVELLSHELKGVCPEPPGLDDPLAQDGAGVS
A1 pKi [1],A2A pKi [2],Ki [1],Ki [2],SMILES
6.0,8.7,,,"Cc1cc(-c2c(-c3ccccc3)nc(N)n3c(=O)n(C[C@@H]4CC(F)(F)CN4)nc23)cc(C)n1 [Example 2-11, 5-amino-2-[[(2S)-4,4-difluoropyrrolidin-2-yl]methyl]-8-(2,6-dimethyl-4-pyridyl)-7-phenyl-[1,2,4]triazolo[4,3-c]pyrimidin-3-one]"
7.5,9.2,,,"Cc1ocnc1Cn1nc2c(-c3cc(C)[n+]([O-])c(C)c3)c(-c3ccccc3)nc(N)n2c1=O [Example 1-34, 5-amino-8-(2,6-dimethyl-1-oxido-pyridin-1-ium-4-yl)-2-[(5-methyloxazol-4-yl)methyl]-7-phenyl-[1,2,4]triazolo[4,3-c]pyrimidin-3-one]"
6.8,9.0,,,"Cc1cc(-c2c(-c3ccccc3)nc(N)n3c(=O)n(C[C@@H]4CCCN4C)nc23)cc(C)n1 [Example 2-8, 5-amino-8-(2,6-dimethyl-4-pyridyl)-2-[[(2S)-1-methylpyrrolidin-2-yl]methyl]-7-phenyl-[1,2,4]triazolo[4,3-c]pyrimidin-3-one]"
6.8,9.5,,,"Cc1cc(-c2c(-c3ccccc3)nc(N)n3c(=O)n(Cc4ncoc4C)nc23)cc(CO)n1 [Example 1-39, 5-amino-8-[2-(hydroxymethyl)-6-methyl-4-pyridyl]-2-[(5-methyloxazol-4-yl)methyl]-7-phenyl-[1,2,4]triazolo[4,3-c]pyrimidin-3-one]"
,8.6,,,"Cc1cc(-c2c(-c3ccccc3)nc(N)n3c(=O)n(C[C@@H]4CCCO4)nc23)cc(C)n1 [Example 2-17, 5-amino-8-(2,6-dimethyl-4-pyridyl)-7-phenyl-2-[[(2S)-tetrahydrofuran-2-yl]methyl]-[1,2,4]triazolo[4,3-c]pyrimidin-3-one]"
7.1,10.0,,,"COc1cc(-c2c(-c3ccc(F)cc3)nc(N)n3c(=O)n(Cc4nccn4C)nc23)cc(CO)n1 [Example 1-65, 5-amino-7-(4-fluorophenyl)-8-[2-(hydroxymethyl)-6-methoxy-4-pyridyl]-2-[(1-methylimidazol-2-yl)methyl]-[1,2,4]triazolo[4,3-c]pyrimidin-3-one]"
6.2,8.0,,,"Cc1cc(-c2c(-c3ccccc3)nc(N)n3c(=O)n(C[C@H]4C[C@@H](F)CN4)nc23)cc(C)n1 [Example 2-19, 5-amino-8-(2,6-dimethyl-4-pyridyl)-2-[[(2R,4R)-4-fluoropyrrolidin-2-yl]methyl]-7-phenyl-[1,2,4]triazolo[4,3-c]pyrimidin-3-one]"
5.7,7.2,,,"Cc1cc(-c2c(-c3ccccc3)nc(N)n3c(=O)n(CCN(C)c4cn[nH]c4)nc23)cc(C)n1 [Example 3-3, 5-amino-8-(2,6-dimethyl-4-pyridyl)-2-[2-[methyl(1H-pyrazol-4-yl)amino]ethyl]-7-phenyl-[1,2,4]triazolo[4,3-c]pyrimidin-3-one]"
,,126 nM,0.1 nM,"[2H]c1c([2H])c([2H])c(-c2nc(N)n3c(=O)n(Cc4ncoc4C)nc3c2-c2cc(Cl)nc(CO)c2)c([2H])c1[2H] [Example 1-57, 5-amino-8-[2-chloro-6-(hydroxymethyl)-4-pyridyl]-2-[(5-methyloxazol-4-yl)methyl]-7-(2,3,4,5,6-pentadeuteriophenyl)-[1,2,4]triazolo[4,3-c]pyrimidin-3-one]"
6.2,7.5,,,"Cc1cc(-c2c(-c3ccccc3)nc(N)n3c(=O)n(CCn4cccn4)nc23)cc(C)n1 [Example 1-1, 5-amino-8-(2,6-dimethyl-4-pyridyl)-7-phenyl-2-(2-pyrazol-1-ylethyl)-[1,2,4]triazolo[4,3-c]pyrimidin-3-one]"
6.6,8.9,,,"Cc1cc(-c2c(-c3ccccc3)nc(N)n3c(=O)n(Cc4cnn(C)n4)nc23)cc(C)n1 [Example 1-30, 5-amino-8-(2,6-dimethyl-4-pyridyl)-2-[(2-methyltriazol-4-yl)methyl]-7-phenyl-[1,2,4]triazolo[4,3-c]pyrimidin-3-one]"
5.9,8.2,,,"Cc1cc(-c2c(-c3ccccc3)nc(N)n3c(=O)n(C[C@H]4C[C@@H](O)CN4)nc23)cc(C)n1 [Example 2-23, 5-amino-8-(2,6-dimethyl-4-pyridyl)-2-[[(2R,4R)-4-hydroxypyrrolidin-2-yl]methyl]-7-phenyl-[1,2,4]triazolo[4,3-c]pyrimidin-3-one]"
7.0,8.6,,,"Cc1cc(-c2c(-c3ccccc3)nc(N)n3c(=O)n(Cc4nn[nH]c4C)nc23)cc(C)n1 [Example 1-29, 5-amino-8-(2,6-dimethylpyridin-4-yl)-2-((5-methyl-1H-1,2,3-triazol-4-yl)methyl)-7-phenyl-[1,2,4]triazolo[4,3-c]pyrimidin-3(2H)-one]"
6.6,8.7,,,"Cc1cc(-c2c(-c3ccccc3)nc(N)n3c(=O)n(Cc4noc(C)n4)nc23)cc(C)n1 [Example 1-20, 5-amino-8-(2,6-dimethyl-4-pyridyl)-2-[(5-methyl-1,2,4-oxadiazol-3-yl)methyl]-7-phenyl-[1,2,4]triazolo[4,3-c]pyrimidin-3-one]"
6.2,9.1,,,"Cc1cc(-c2c(-c3ccccc3)nc(N)n3c(=O)n(CC4CCCN4C)nc23)cc(C)n1 (stereo not drawn) [Example 2-6, 5-amino-8-(2,6-dimethyl-4-pyridyl)-2-[(1-methylpyrrolidin-2-yl)methyl]-7-phenyl-[1,2,4]triazolo[4,3-c]pyrimidin-3-one]"
6.7,9.6,,,"COc1cc(-c2c(-c3ccccc3)nc(N)n3c(=O)n(C[C@H]4CCCO4)nc23)cc(C)n1 [Example 2-27, 5-amino-8-(2-methoxy-6-methyl-4-pyridyl)-7-phenyl-2-[[(2R)-tetrahydrofuran-2-yl]methyl]-[1,2,4]triazolo[4,3-c]pyrimidin-3one]"
6.5,7.7,,,"Cc1cc(-c2c(-c3ccccc3)nc(N)n3c(=O)n(Cc4nncn4C)nc23)cc(C)n1 [Example 1-28, 5-amino-8-(2,6-dimethyl-4-pyridyl)-2-[(4-methyl-1,2,4-triazol-3-yl)methyl]-7-phenyl-[1,2,4]triazolo[4,3-c]pyrimidin-3-one]"
,,501 nM,1 nM,"[2H]c1c([2H])c([2H])c(-c2nc(N)n3c(=O)n(C[C@H]4CCCO4)nc3c2-c2cc(C)nc(CO)c2)c([2H])c1[2H] [Example 2-30, 5-amino-8-[2-(hydroxymethyl)-6-methyl-4-pyridyl]-7-(2,3,4,5,6-pentadeuteriophenyl)-2-[[(2R)-tetrahydrofuran-2-yl]methyl]-[1,2,4]triazolo[4,3-c]pyrimidin-3-one]"
6.4,8.4,,,"Cc1cc(-c2c(-c3ccccc3)nc(N)n3c(=O)n(C[C@@H]4C[C@@H](F)CN4)nc23)cc(C)n1 [Example 2-21, 5-amino-8-(2,6-dimethyl-4-pyridyl)-2-[[(2S,4R)-4-fluoropyrrolidin-2-yl]methyl]-7-phenyl-[1,2,4]triazolo[4,3-c]pyrimidin-3-one]"
,,126 nM,0.251 nM,"[2H]c1c([2H])c([2H])c(-c2nc(N)n3c(=O)n(Cc4nccn4C)nc3c2-c2cc(CO)nc(OC)c2)c([2H])c1[2H] [Example 1-62, 5-amino-8-[2-(hydroxymethyl)-6-methoxy-4-pyridyl]-2-[(1-methylimidazol-2-yl)methyl]-7-(2,3,4,5,6-pentadeuteriophenyl)-[1,2,4]triazolo[4,3-c]pyrimidin-3-one]"
7.4,9.3,,,"Cc1cc(-c2c(-c3ccccc3)nc(N)n3c(=O)n(C[C@H]4CCCN4C)nc23)cc(C)n1 [Example 2-7, 5-amino-8-(2,6-dimethyl-4-pyridyl)-2-[[(2R)-1-methylpyrrolidin-2-yl]methyl]-7-phenyl-[1,2,4]triazolo[4,3-c]pyrimidin-3-one]"
,,5.01 nM,0.158 nM,"[2H]c1c([2H])c([2H])c(-c2nc(N)n3c(=O)n(Cc4nccn4C)nc3c2-c2cc(Cl)nc(CO)c2)c([2H])c1[2H] [Example 1-56, 5-amino-8-[2-chloro-6-(hydroxymethyl)-4-pyridyl]-2-[(1-methylimidazol-2-yl)methyl]-7-(2,3,4,5,6-pentadeuteriophenyl)-[1,2,4]triazolo[4,3-c]pyrimidin-3-one]"
,8.8,,,"Cc1cc(-c2c(-c3ccccc3)nc(N)n3c(=O)n(C[C@@H]4C[C@H](O)CN4C)nc23)cc(C)n1 [Example 2-25, 5-amino-8-(2,6-dimethyl-4-pyridyl)-2-[[(2S,4S)-4-hydroxy-1-methyl-pyrrolidin-2-yl]methyl]-7-phenyl-[1,2,4]triazolo[4,3-c]pyrimidin-3-one]"
,8.8,,,"Cc1cc(-c2c(-c3ccccc3)nc(N)n3c(=O)n(C[C@H]4C[C@@H](O)CN4C)nc23)cc(C)n1 [Example 2-24, 5-amino-8-(2,6-dimethyl-4-pyridyl)-2-[[(2R,4R)-4-hydroxy-1-methyl-pyrrolidin-2-yl]methyl]-7-phenyl-[1,2,4]triazolo[4,3-c]pyrimidin-3-one]"
